The values below are quoted from earlier work in patent US7829688B2, “Peptides of CaV2.2 that inhibit pain” (The Board of Regents of the University of Texas System, priority 2004, dated 2010).

In this data set the target is T1, N-type Ca2+ channels (Rattus norvegicus, UniProt Q02294, C1579L/DEL1236-1239/DEL415-415/E177G/INS1558ET).
T1 construct: host or cells: rat, in vivo (Malmberg and Yaksh, 1994, 1995)
As to conditions: in vivo; cited from earlier work.

T1 sequence (Q02294 whole entry, looked up, stated change not applied): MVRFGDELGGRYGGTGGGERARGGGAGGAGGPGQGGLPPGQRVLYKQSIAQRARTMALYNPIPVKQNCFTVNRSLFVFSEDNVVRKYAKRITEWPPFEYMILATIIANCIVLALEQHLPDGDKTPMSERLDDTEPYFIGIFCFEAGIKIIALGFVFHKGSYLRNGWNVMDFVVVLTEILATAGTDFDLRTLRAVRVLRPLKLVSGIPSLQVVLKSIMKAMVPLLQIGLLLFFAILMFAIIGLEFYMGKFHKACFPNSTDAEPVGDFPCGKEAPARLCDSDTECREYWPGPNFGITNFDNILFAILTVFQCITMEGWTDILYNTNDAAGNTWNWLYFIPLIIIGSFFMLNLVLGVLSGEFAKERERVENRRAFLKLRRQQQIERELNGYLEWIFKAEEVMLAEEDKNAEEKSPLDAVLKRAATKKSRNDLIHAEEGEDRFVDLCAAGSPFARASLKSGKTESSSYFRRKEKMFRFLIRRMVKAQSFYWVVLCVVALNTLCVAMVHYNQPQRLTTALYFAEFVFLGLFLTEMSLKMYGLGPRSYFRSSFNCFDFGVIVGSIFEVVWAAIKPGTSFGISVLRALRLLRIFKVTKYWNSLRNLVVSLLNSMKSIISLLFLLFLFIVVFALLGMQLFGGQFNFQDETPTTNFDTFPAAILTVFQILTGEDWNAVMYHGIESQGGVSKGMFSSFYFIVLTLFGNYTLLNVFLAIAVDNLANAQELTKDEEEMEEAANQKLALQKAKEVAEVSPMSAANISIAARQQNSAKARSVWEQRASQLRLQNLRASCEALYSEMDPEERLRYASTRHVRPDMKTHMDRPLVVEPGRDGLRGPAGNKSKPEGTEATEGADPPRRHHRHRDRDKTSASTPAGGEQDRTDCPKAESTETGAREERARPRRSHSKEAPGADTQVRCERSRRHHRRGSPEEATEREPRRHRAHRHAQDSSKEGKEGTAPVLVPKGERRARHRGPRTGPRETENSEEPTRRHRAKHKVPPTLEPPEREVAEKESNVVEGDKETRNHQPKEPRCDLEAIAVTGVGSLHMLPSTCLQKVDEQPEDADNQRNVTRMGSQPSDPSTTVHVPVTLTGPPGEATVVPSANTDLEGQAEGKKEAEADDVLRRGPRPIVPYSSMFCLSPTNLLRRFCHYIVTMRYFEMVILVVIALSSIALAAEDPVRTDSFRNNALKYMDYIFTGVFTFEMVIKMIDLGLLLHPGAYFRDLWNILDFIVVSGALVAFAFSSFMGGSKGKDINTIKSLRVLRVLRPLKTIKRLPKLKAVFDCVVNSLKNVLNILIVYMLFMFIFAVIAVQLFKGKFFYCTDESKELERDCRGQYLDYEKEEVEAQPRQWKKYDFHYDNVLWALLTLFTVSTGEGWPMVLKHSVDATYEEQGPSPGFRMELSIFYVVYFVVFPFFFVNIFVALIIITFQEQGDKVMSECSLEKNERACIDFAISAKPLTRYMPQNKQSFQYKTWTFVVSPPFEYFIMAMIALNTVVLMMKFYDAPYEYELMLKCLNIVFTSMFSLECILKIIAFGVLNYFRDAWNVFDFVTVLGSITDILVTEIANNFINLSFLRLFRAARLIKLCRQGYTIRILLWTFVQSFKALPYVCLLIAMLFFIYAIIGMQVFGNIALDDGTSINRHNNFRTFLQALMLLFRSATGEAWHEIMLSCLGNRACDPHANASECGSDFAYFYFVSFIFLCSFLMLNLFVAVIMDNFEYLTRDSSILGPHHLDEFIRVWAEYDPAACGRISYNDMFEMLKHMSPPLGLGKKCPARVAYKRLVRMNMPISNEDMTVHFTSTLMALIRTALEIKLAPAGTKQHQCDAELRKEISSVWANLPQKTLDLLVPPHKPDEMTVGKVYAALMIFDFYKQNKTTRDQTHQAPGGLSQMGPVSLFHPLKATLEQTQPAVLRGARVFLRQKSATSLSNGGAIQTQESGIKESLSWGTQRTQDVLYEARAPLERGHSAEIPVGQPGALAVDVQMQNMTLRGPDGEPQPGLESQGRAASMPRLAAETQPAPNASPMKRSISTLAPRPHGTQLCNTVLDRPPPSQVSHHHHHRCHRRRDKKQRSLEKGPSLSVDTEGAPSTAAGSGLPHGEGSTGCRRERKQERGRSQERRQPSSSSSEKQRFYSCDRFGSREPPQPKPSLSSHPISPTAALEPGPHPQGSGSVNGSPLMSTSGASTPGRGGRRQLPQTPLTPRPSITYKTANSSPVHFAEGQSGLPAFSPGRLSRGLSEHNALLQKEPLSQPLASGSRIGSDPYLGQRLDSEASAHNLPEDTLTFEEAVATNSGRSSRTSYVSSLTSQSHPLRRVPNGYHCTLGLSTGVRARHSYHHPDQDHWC

As to `CSCC[C@@H]1NC(=O)[C@H](CC(C)C)NC(=O)[C@H](CCCNC(=N)N)NC(=O)[C@H](CO)NC(=O)[C@@H]2CSSC[C@@H]3NC(=O)[C@H](CO)NC(=O)CNC(=O)[C@H]([C@@H](C)O)NC(=O)[C@H](CSSC[C@H](N)C(=O)N[C@@H](CCCCN)C(=O)NCC(=O)N[C@@H](CCCCN)C(=O)NCC(=O)N[C@@H](C)C(=O)N[C@@H](CCCCN)C(=O)N2)NC(=O)[C@H](CSSC[C@@H](C(N)=O)NC(=O)[C@H](CCCCN)NC(=O)CNC(=O)[C@H](CO)NC(=O)[C@H](CCCNC(=N)N)NC3=O)NC(=O)[C@H](CC(=O)O)NC(=O)[C@H](Cc2ccc(O)cc2)NC1=O` [SNX-111], the “phase II formalin response” value is listed as “inhibited”.
